Experiments:
GST-Bcl-2 = experiment: TR-FRET binding assay, Bcl-2; conditions: TR-FRET Ki values
Procedure, shortened: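 Ki values come from Wang's competitive-binding equation applied to TR-FRET signal (excitation 340/35 nm; emission 520/525 nm F-Bak peptide, 495/510 nm Tb antibody). Protein, probe and antibody incubated with compound 3 h at room temperature; dilution series began at 50 μM as 2× stock in 10% DMSO.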

FL5.12/Bcl-2 cells = experiment: FL5.12/Bcl-2 cell viability assay; type: cell-based, murine; conditions: ratio of canine platelet EC50 to FL5.12/Bcl-2 EC50
From the text: FL5.12 is an IL-3 dependent prolymphocytic murine cell line that undergoes apoptosis upon IL-3 withdrawal as a result of the upregulation of pro-apoptotic Bcl-2 proteins such as Bim and Puma. Stable overexpression of anti-apoptotic Bcl-2 protein (FL5.12/Bcl-2) protects against apoptosis induced by IL-3 withdrawal by sequestration of Bim and Puma. […] The ability of compounds to kill FL5.12/Bcl-2 cells upon IL-3 withdrawal is a direct measure of the compounds' ability to inhibit anti-apoptotic Bcl-2 protein function.
Wild type FL5.12/Bcl-2 overexpressing stable transfectants were cultured in RPMI-1640 supplemented with 2 mM L-glutamine, 10% FBS, 1 mM sodium pyruvate, 2 mM HEPES, 1% penicillin/streptomycin (Invitrogen), 57 μM β-ME, and 10% WEHI-3B conditioned medium (source of IL-3) and maintained at 37° C. containing 5% CO2. 1×10^6 cells/ml were washed 1×PBS and resuspended in medium not supplemented with 10% WEHI-3B for 48 hrs prior to cytotoxicity assays. Cells were then treated for an additional 24 hrs in the presence of various concentrations of the indicated compounds. Cell viability was assessed by CellTitre Glo assay (Promega Corp.) according to the manufacturer's recommendations.

CN(C)CCCNc1ccc(S(=O)(=O)NC(=O)c2ccc(N3CCN(Cc4ccccc4-c4ccc(Cl)cc4)CC3)cc2Oc2cccc3[nH]ccc23)cc1[N+](=O)[O-] [Example 46, 4-{4-[(4′-chloro-1,1′-biphenyl-2-yl)methyl]piperazin-1-yl}-N-[(4-{[3-(dimethylamino)propyl]amino}-3-nitrophenyl)sulfonyl]-2-(1H-indol-4-yloxy)benzamide]
Binding selectivity ratio (Bcl-XL Ki/Bcl-2 Ki) (GST-Bcl-2): 119.2
Selectivity Ratio (Platelet EC50/FL5.12/Bcl-2 EC50) (FL5.12/Bcl-2 cells): 725

CC1(C)CCC(CN2CCN(c3ccc(C(=O)NS(=O)(=O)c4ccc(NCCCN5CCOCC5)c([N+](=O)[O-])c4)c(Oc4ccc5[nH]ccc5c4)c3)CC2)=C(c2ccc(Cl)cc2)C1 [Example 52, 4-(4-{[2-(4-chlorophenyl)-4,4-dimethylcyclohex-1-en-1-yl]methyl}piperazin-1-yl)-2-(1H-indol-5-yloxy)-N-({4-[(3-morpholin-4-ylpropyl)amino]-3-nitrophenyl}sulfonyl)benzamide]
Binding selectivity ratio (Bcl-XL Ki/Bcl-2 Ki) (GST-Bcl-2): 333.9
Selectivity Ratio (Platelet EC50/FL5.12/Bcl-2 EC50) (FL5.12/Bcl-2 cells): >3164

CN(C)CCCNc1ccc(S(=O)(=O)NC(=O)c2ccc(N3CCN(CC4=C(c5ccc(Cl)cc5)CC(C)(C)CC4)CC3)cc2Oc2ccc3[nH]ccc3c2)cc1[N+](=O)[O-] [Example 53, 4-(4-{[2-(4-chlorophenyl)-4,4-dimethylcyclohex-1-en-1-yl]methyl}piperazin-1-yl)-N-[(4-{[3-(dimethylamino)propyl]amino}-3-nitrophenyl)sulfonyl]-2-(1H-indol-5-yloxy)benzamide]
Binding selectivity ratio (Bcl-XL Ki/Bcl-2 Ki) (GST-Bcl-2): 59.8
Selectivity Ratio (Platelet EC50/FL5.12/Bcl-2 EC50) (FL5.12/Bcl-2 cells): 1697

CC1(C)CCC(c2ccc(Cl)cc2)=C(CN2CCN(c3ccc(C(=O)NS(=O)(=O)c4ccc(NCCCN5CCOCC5)c([N+](=O)[O-])c4)c(Oc4cccc5[nH]ccc45)c3)CC2)C1 [Example 54, 4-(4-{[2-(4-chlorophenyl)-5,5-dimethylcyclohex-1-en-1-yl]methyl}piperazin-1-yl)-2-(1H-indol-4-yloxy)-N-({4-[(3-morpholin-4-ylpropyl)amino]-3-nitrophenyl}sulfonyl)benzamide]
Binding selectivity ratio (Bcl-XL Ki/Bcl-2 Ki) (GST-Bcl-2): 108.3
Selectivity Ratio (Platelet EC50/FL5.12/Bcl-2 EC50) (FL5.12/Bcl-2 cells): >785

CC1(C)CCC(CN2CCN(c3ccc(C(=O)NS(=O)(=O)c4ccc(NCCCN5CCOCC5)c([N+](=O)[O-])c4)c(Oc4cccc5[nH]ccc45)c3)CC2)=C(c2ccc(Cl)cc2)C1 [Example 55, 4-(4-{[2-(4-chlorophenyl)-4,4-dimethylcyclohex-1-en-1-yl]methyl}piperazin-1-yl)-2-(1H-indol-4-yloxy)-N-({4-[(3-morpholin-4-ylpropyl)amino]-3-nitrophenyl}sulfonyl)benzamide]
Binding selectivity ratio (Bcl-XL Ki/Bcl-2 Ki) (GST-Bcl-2): 126.9
Selectivity Ratio (Platelet EC50/FL5.12/Bcl-2 EC50) (FL5.12/Bcl-2 cells): 1614

CN(C)CCCNc1ccc(S(=O)(=O)NC(=O)c2ccc(N3CCN(CC4=C(c5ccc(Cl)cc5)CCC(C)(C)C4)CC3)cc2Oc2cccc3[nH]ccc23)cc1[N+](=O)[O-] [Example 56, 4-(4-{[2-(4-chlorophenyl)-5,5-dimethylcyclohex-1-en-1-yl]methyl}piperazin-1-yl)-N-[(4-{[3-(dimethylamino)propyl]amino}-3-nitrophenyl)sulfonyl]-2-(1H-indol-4-yloxy)benzamide]
Binding selectivity ratio (Bcl-XL Ki/Bcl-2 Ki) (GST-Bcl-2): 48.2
Selectivity Ratio (Platelet EC50/FL5.12/Bcl-2 EC50) (FL5.12/Bcl-2 cells): 554

CN(C)CCCNc1ccc(S(=O)(=O)NC(=O)c2ccc(N3CCN(CC4=C(c5ccc(Cl)cc5)CC(C)(C)CC4)CC3)cc2Oc2cccc3[nH]ccc23)cc1[N+](=O)[O-] [Example 57, 4-(4-{[2-(4-chlorophenyl)-4,4-dimethylcyclohex-1-en-1-yl]methyl}piperazin-1-yl)-N-[(4-{[3-(dimethylamino)propyl]amino}-3-nitrophenyl)sulfonyl]-2-(1H-indol-4-yloxy)benzamide]
Binding selectivity ratio (Bcl-XL Ki/Bcl-2 Ki) (GST-Bcl-2): 68.7
Selectivity Ratio (Platelet EC50/FL5.12/Bcl-2 EC50) (FL5.12/Bcl-2 cells): 1077

COc1ccc(C2=C(CN3CCN(c4ccc(C(=O)NS(=O)(=O)c5ccc(NCCCN6CCCC6)c([N+](=O)[O-])c5)c(Oc5cccc6[nH]ccc56)c4)CC3)CCC(C)(C)C2)cc1 [Example 68, 2-(1H-indol-4-yloxy)-4-(4-{[2-(4-methoxyphenyl)-4,4-dimethylcyclohex-1-en-1-yl]methyl}piperazin-1-yl)-N-({3-nitro-4-[(3-pyrrolidin-1-ylpropyl)amino]phenyl}sulfonyl)benzamide]
Binding selectivity ratio (Bcl-XL Ki/Bcl-2 Ki) (GST-Bcl-2): 11.4
Selectivity Ratio (Platelet EC50/FL5.12/Bcl-2 EC50) (FL5.12/Bcl-2 cells): >1144

CC1(C)CCC(CN2CCN(c3ccc(C(=O)NS(=O)(=O)c4ccc(NCCCN5CCCC5)c([N+](=O)[O-])c4)c(Oc4cccc5[nH]ccc45)c3)CC2)=C(c2ccc(C(F)(F)F)cc2)C1 [Example 69, 4-[4-({4,4-dimethyl-2-[4-(trifluoromethyl)phenyl]cyclohex-1-en-1-yl}methyl)piperazin-1-yl]-2-(1H-indol-4-yloxy)-N-({3-nitro-4-[(3-pyrrolidin-1-ylpropyl)amino]phenyl}sulfonyl)benzamide]
Binding selectivity ratio (Bcl-XL Ki/Bcl-2 Ki) (GST-Bcl-2): 74
Selectivity Ratio (Platelet EC50/FL5.12/Bcl-2 EC50) (FL5.12/Bcl-2 cells): >666

CC1(C)CCC(CN2CCN(c3ccc(C(=O)NS(=O)(=O)c4ccc(NCCCN5CCCC5)c([N+](=O)[O-])c4)c(Oc4cccc5[nH]ccc45)c3)CC2)=C(c2ccc(OC(F)(F)F)cc2)C1 [Example 70, 4-[4-({4,4-dimethyl-2-[4-(trifluoromethoxy)phenyl]cyclohex-1-en-1-yl}methyl)piperazin-1-yl]-2-(1H-indol-4-yloxy)-N-({3-nitro-4-[(3-pyrrolidin-1-ylpropyl)amino]phenyl}sulfonyl)benzamide]
Binding selectivity ratio (Bcl-XL Ki/Bcl-2 Ki) (GST-Bcl-2): 62.4
Selectivity Ratio (Platelet EC50/FL5.12/Bcl-2 EC50) (FL5.12/Bcl-2 cells): >450

CC1(C)CCC(CN2CCN(c3ccc(C(=O)NS(=O)(=O)c4ccc(NCCCN5CCCC5)c([N+](=O)[O-])c4)c(Oc4cccc5[nH]ccc45)c3)CC2)=C(c2cccc(C(F)(F)F)c2)C1 [Example 71, 4-[4-({4,4-dimethyl-2-[3-(trifluoromethyl)phenyl]cyclohex-1-en-1-yl}methyl)piperazin-1-yl]-2-(1H-indol-4-yloxy)-N-({3-nitro-4-[(3-pyrrolidin-1-ylpropyl)amino]phenyl}sulfonyl)benzamide]
Binding selectivity ratio (Bcl-XL Ki/Bcl-2 Ki) (GST-Bcl-2): >105.9
Selectivity Ratio (Platelet EC50/FL5.12/Bcl-2 EC50) (FL5.12/Bcl-2 cells): >107

CC1(C)CCC(CN2CCN(c3ccc(C(=O)NS(=O)(=O)c4ccc(NCCCN5CCCC5)c([N+](=O)[O-])c4)c(Oc4cccc5[nH]ccc45)c3)CC2)=C(c2cccc(F)c2)C1 [Example 72, 4-(4-{[2-(3-fluorophenyl)-4,4-dimethylcyclohex-1-en-1-yl]methyl}piperazin-1-yl)-2-(1H-indol-4-yloxy)-N-({3-nitro-4-[(3-pyrrolidin-1-ylpropyl)amino]phenyl}sulfonyl)benzamide]
Binding selectivity ratio (Bcl-XL Ki/Bcl-2 Ki) (GST-Bcl-2): 17.3
Selectivity Ratio (Platelet EC50/FL5.12/Bcl-2 EC50) (FL5.12/Bcl-2 cells): >325

CC1(C)CCC(CN2CCN(c3ccc(C(=O)NS(=O)(=O)c4ccc(NCCCN5CCCC5)c([N+](=O)[O-])c4)c(Oc4cccc5[nH]ccc45)c3)CC2)=C(c2ccc(F)cc2)C1 [Example 73, 4-(4-{[2-(4-fluorophenyl)-4,4-dimethylcyclohex-1-en-1-yl]methyl}piperazin-1-yl)-2-(1H-indol-4-yloxy)-N-({3-nitro-4-[(3-pyrrolidin-1-ylpropyl)amino]phenyl}sulfonyl)benzamide]
Binding selectivity ratio (Bcl-XL Ki/Bcl-2 Ki) (GST-Bcl-2): 9.9
Selectivity Ratio (Platelet EC50/FL5.12/Bcl-2 EC50) (FL5.12/Bcl-2 cells): 166

CN1CCC(Nc2ccc(S(=O)(=O)NC(=O)c3ccc(N4CCN(CC5=C(c6ccc(Cl)cc6)CC(C)(C)CC5)CC4)cc3Oc3ccc4[nH]ccc4c3)cc2S(=O)(=O)C(F)(F)Cl)CC1 [Example 74, N-({3-{[chloro(difluoro)methyl]sulfonyl}-4-[(1-methylpiperidin-4-yl)amino]phenyl}sulfonyl)-4-(4-{[2-(4-chlorophenyl)-4,4-dimethylcyclohex-1-en-1-yl]methyl}piperazin-1-yl)-2-(1H-indol-5-yloxy)benzamide]
Binding selectivity ratio (Bcl-XL Ki/Bcl-2 Ki) (GST-Bcl-2): 1262.5
Selectivity Ratio (Platelet EC50/FL5.12/Bcl-2 EC50) (FL5.12/Bcl-2 cells): 1989

CN1CCC(Nc2ccc(S(=O)(=O)NC(=O)c3ccc(N4CCN(CC5=C(c6ccc(Cl)cc6)CCCC5)CC4)cc3Oc3ccc4[nH]ccc4c3)cc2[N+](=O)[O-])CC1 [Example 75, 4-(4-{[2-(4-chlorophenyl)cyclohex-1-en-1-yl]methyl}piperazin-1-yl)-2-(1H-indol-5-yloxy)-N-({4-[(1-methylpiperidin-4-yl)amino]-3-nitrophenyl}sulfonyl)benzamide]
Binding selectivity ratio (Bcl-XL Ki/Bcl-2 Ki) (GST-Bcl-2): 852.2
Selectivity Ratio (Platelet EC50/FL5.12/Bcl-2 EC50) (FL5.12/Bcl-2 cells): 821

CN1CCN(CCCNc2ccc(S(=O)(=O)NC(=O)c3ccc(N4CCN(Cc5ccccc5-c5ccc(Cl)cc5)CC4)cc3Oc3ccccc3)cc2[N+](=O)[O-])CC1 [Example 86, 4-{4-[(4′-chloro-1,1′-biphenyl-2-yl)methyl]piperazin-1-yl}-N-[(4-{[3-(4-methylpiperazin-1-yl)propyl]amino}-3-nitrophenyl)sulfonyl]-2-phenoxybenzamide]
Binding selectivity ratio (Bcl-XL Ki/Bcl-2 Ki) (GST-Bcl-2): 49.6
Selectivity Ratio (Platelet EC50/FL5.12/Bcl-2 EC50) (FL5.12/Bcl-2 cells): 489

Reference: patent US9125913B2, “Bcl-2-selective apoptosis-inducing agents for the treatment of cancer and immune diseases” (AbbVie Inc., priority 2008, dated 2015)
